Experimental findings from patent EP0821955B1 (priority 1996, dated 1998) are described below.

Test [1] addresses muscarinic cholinergic receptors. The test is described as follows: ^3H-oxotremorine-M binding study. Particulars: inhibition of the binding of ^3H-oxotremorine-M; read-out: inhibition constant (Ki).
The next test has as its target m4 receptors (Homo sapiens, UniProt P08173). The test is classed as cell-based. Particulars: Chinese Hamster Ovary (CHO) m4 cells treated with pertussis toxin.

Broadly, the Ki is a dissociation constant, usually derived from enzyme kinetics or from competition with a known ligand.

Sequence of m4 receptors (P08173 whole entry): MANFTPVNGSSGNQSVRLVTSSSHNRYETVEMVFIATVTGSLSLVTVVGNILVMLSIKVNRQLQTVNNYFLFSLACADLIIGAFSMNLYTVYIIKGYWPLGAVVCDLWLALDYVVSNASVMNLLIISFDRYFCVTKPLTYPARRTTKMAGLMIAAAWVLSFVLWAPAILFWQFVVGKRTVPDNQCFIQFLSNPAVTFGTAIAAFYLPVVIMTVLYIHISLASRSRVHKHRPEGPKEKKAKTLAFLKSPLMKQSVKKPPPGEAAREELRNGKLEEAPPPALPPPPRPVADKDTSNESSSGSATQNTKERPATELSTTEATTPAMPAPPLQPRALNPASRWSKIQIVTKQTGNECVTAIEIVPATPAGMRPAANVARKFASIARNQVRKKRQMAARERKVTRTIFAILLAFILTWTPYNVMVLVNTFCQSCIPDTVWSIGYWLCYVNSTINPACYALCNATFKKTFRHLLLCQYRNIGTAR

For `CCCCCCOc1nsnc1C1=CCCN(C)C1` [xanomeline, 3-(4-hexyloxy-1,2,5-thiadiazol-3-yl)-1,2,5,6-tetrahydro-1-methylpyridine], in test [1], the inhibitory constant (Ki) stood at 2 nM. Further, on m4 receptors, the “formation of cAMP” value is “efficaciously and potently stimulated the formation of cAMP”.
